Key:
PDIA1 [1] = molecular target: T1, PDIA1 (Homo sapiens, UniProt P07237); experiment: Tryptophan fluorescence quenching titration, PDIA1; format: binding; settings: for Stern–Volmer constant KSV: 0.1 × 10^−6 M protein; for Stern–Volmer constant KSV / Kd: pH 7.4, 25 °C; for Kd: fluorescence quenching
T1 construct: The pOLR130 plasmid encoding mature human PDIA1 with an N-terminal His6x-tag; His6 (N); made in house; host or cells: E. coli BL21
Experimental: (§1) Protein-ligand interactions were evaluated according to the fluorescence quenching titration method using a SPEX-FluoroMax spectrofluorometer (Horiba Scientific, Piscataway, NJ, USA). Emission spectra were recorded from 300 to 400 nm with an excitation wavelength set at 290 nm. The emission slit width was fixed to provide a 2 nm bandpass for all experiments. Scan speed was set at 120 nm min^−1. A total of 50 µM PDIA1 and PDIA3 stock solutions were reduced by adding DTT 5 mM. […] The titrations were performed by stepwise additions, at 5 min time intervals, of punicalagin solution from 0 to 4 µM (punicalagin 0.2 mM in PBS pH 7.4 freshly prepared from a 5 mM stock solution in water). Blank spectra for each experiment (no protein added) were performed in parallel for background determination. The emission spectrum of the protein was recorded three times, and the average reading values were then used for quenching analyses as already described.
(§2) Quenching of intrinsic tryptophan fluorescence at 338 nm has been analyzed by Stern–Volmer equation (Fo/F = 1 + KSV[L]), where F and F0 are the fluorescence intensity, respectively with or without ligand (L), and KSV is the Stern–Volmer constant value. Based on obtained results, punicalagin is able to quench the fluorescence of both proteins with a Stern–Volmer constant always greater than 1.0 × 10^4 M^−1 (Figure 2B and Table 1). […] In order to further characterize the binding process, data were analyzed using the equation described by Bi et al. and the reiterative calculation process described by Sun et al., providing an estimation of the Kd values (Table 1). Punicalagin binds both PDIAs in the micro-molar order of magnitude, showing a slightly greater affinity toward PDIA3, which tryptophan residues appear more quenchable upon punicalagin binding.

PDIA3 [2] = molecular target: T2, PDIA3 (Homo sapiens, UniProt P30101); experiment: Tryptophan fluorescence quenching titration, PDIA3; format: binding; settings: for Stern–Volmer constant KSV: 0.1 × 10^−6 M protein; for Stern–Volmer constant KSV / Kd: pH 7.4, 25 °C; for Kd: fluorescence quenching
T2 construct: Mature human recombinant PDIA3 protein was expressed and purified; made in house
T2 sequence (P30101 25-505): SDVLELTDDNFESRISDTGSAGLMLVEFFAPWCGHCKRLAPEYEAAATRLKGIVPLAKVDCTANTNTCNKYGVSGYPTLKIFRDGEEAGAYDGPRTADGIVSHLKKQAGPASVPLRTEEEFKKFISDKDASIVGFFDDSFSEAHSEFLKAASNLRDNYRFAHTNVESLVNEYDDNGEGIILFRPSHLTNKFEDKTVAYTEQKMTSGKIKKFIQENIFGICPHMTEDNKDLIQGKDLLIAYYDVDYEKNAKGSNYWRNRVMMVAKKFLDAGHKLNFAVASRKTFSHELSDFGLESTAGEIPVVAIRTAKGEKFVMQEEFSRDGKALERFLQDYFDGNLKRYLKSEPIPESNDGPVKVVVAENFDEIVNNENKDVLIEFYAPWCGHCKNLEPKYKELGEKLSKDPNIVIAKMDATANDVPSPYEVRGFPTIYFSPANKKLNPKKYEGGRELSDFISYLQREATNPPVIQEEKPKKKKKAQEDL
Experimental: as §1, §2

PDIA1 [3] = molecular target: T1, PDIA1; experiment: Isothermal titration calorimetry, PDIA1; format: binding; settings: ITC, PDIA1 reduced form, 25 °C
Experimental: (§3) Punicalagin interaction with PDIA3 and PDIA1 was investigated using isothermal titration calorimetry (ITC) with a MicroCal ITC200 (Malvern Instruments, Malvern, UK). […] Protein solution was loaded in the sample cell (0.2 mL), and the syringe was filled with punicalagin 250 µM dissolved in the same buffer. A total of 20 ligand aliquots (the first aliquot of 0.4 µL in 0.8 s and the other 19 aliquots of 2 µL in 4 s) were gradually added to the sample cell at intervals of 200 s each other to allow baseline recovery. The syringe stirring speed was set at 800 rpm. Protein and punicalagin solutions were thoroughly degassed on the MicroCal’s Thermovac machine before loading to avoid air bubble formation during the titration. Data analyses were performed by Origin software version 8.0 (OriginLab, Northampton, MA, USA). The heat of dilution for the ligand was determined in parallel, and this value was subtracted from the integrated data before curve fitting. The integration of the area under each heat burst curve was determined. All injection heats as a function of the molar ratio were plotted and analyzed using the one set of sites model to provide the dissociation constants.

PDIA3 [4] = molecular target: T2, PDIA3; experiment: Isothermal titration calorimetry, PDIA3; format: binding; settings: ITC, PDIA3 reduced form, 25 °C
Experimental: as §3

PDIA1 [5] = molecular target: T1, PDIA1; experiment: Differential scanning calorimetry thermal denaturation, PDIA1; format: binding; settings: reduced PDIA1 5 µM, punicalagin 25 µM
Experimental: (§4) Protein stability in solution was assayed by differential scanning calorimetry (DSC) with a Microcal VP-DSC (Microcal, Northampton, MA, USA) testing both proteins. […] The reference cell was filled with protein-free buffer. A heating rate of 60 °C h^−1 was set, and the measurement cell worked under an excess pressure of 0.2 kPa to avoid air bubble formation during the heating. The heat absorption during the denaturation process was measured by subtracting the instrumental baseline from the sample trace and normalizing for protein concentration. To test the effect of the ligand on protein stability, analysis was also performed on both proteins in the presence of punicalagin (25 µM final concentration). The melting points (Tm, temperature at which excess heat capacity reaches a maximum) were directly observable from the thermogram. Nevertheless, data deconvolution using the Origin software provided by MicroCal was necessary to obtain Tm values.

PDIA3 [6] = molecular target: T2, PDIA3; experiment: Differential scanning calorimetry thermal denaturation, PDIA3; format: binding; settings: reduced PDIA3 5 µM, punicalagin 25 µM
Experimental: as §4

PDIA1 [7] = molecular target: T1, PDIA1; experiment: Disulfide reductase activity with di-E-GSSG, PDIA1; format: biochemical; settings: PDIA1, di-E-GSSG substrate
Experimental: (§5) PDIAs disulfide reductase activity was monitored by using di-eosin glutathione disulfide (di-E-GSSG) as a fluorogenic substrate of PDIAs. Di-E-GSSG was synthesized by the reaction of eosin isothiocyanate with oxidized glutathione (GSSG) according to the method of Raturi and Mutus with some modifications. Protein activity was evaluated by monitoring the emission fluorescence increase (λem = 545 nm and λex = 525 nm), and the effect of punicalagin (concentration ranging from 0.2 to 50 µM) was tested. Inhibition constants were extrapolated by GraphPad Prism 8.0 software (GraphPad Software, San Diego, CA, USA), plotting the obtained data as logarithm dose-response curves.
(§6) Punicalagin effects have also been studied on the enzymatic activity of PDIA3 and PDIA1. It is well known that both proteins catalyze oxidoreductase and isomerase reactions involving thiol groups and disulfide bonds. PDIs’ reductase activity was evaluated using di-E-GSSG as fluorogenic substrate and was calculated as the initial velocity in fluorescence increased due to the reduction in the fluorogenic substrate. […] For comparison purposes, the punicalagin inhibitory effect was extended to PDIA1. Results were analyzed as logarithmic dose response, and the half-maximal inhibitory concentrations (IC50) were evaluated (Figure 4).

PDIA3 [8] = molecular target: T2, PDIA3; experiment: Disulfide reductase activity with di-E-GSSG, PDIA3; format: biochemical; settings: PDIA3, di-E-GSSG substrate
Experimental: as §5, §6

PDIA3 [9] = molecular target: T2, PDIA3; set-up: method as in PMID 29425676; settings: PDIA3 reductase activity, non-competitive inhibitor; cited from earlier work
[10] = set-up: method as in printed; settings: background statement, ref not given; cited from earlier work

T1 sequence (P07237 18-508): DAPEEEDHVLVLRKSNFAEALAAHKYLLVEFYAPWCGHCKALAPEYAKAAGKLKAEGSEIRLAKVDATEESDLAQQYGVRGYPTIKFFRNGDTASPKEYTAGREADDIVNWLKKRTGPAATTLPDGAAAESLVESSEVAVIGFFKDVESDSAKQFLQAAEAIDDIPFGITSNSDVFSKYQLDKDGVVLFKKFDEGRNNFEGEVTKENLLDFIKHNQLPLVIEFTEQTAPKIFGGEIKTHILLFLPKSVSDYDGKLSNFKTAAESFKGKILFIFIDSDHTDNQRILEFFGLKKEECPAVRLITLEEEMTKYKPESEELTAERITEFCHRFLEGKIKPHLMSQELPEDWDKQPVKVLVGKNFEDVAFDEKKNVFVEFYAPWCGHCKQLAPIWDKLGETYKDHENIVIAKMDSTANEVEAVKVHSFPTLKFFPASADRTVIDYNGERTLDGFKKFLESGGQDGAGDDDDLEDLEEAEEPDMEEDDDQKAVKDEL

O=C1O[C@H]2[C@@H]3OC(=O)c4cc(O)c(O)c(O)c4-c4c(O)c(O)c5oc(=O)c6c(c(O)c(O)c7oc(=O)c4c5c76)-c4c(cc(O)c(O)c4O)C(=O)OC[C@H]3OC(O)[C@@H]2OC(=O)c2cc(O)c(O)c(O)c2-c2c1cc(O)c(O)c2O (mixture of isomers) [punicalagin]
Quenching constant Kq (PDIA1 [1]; PDIA1, KSV = Kqτ, τ in the order of 1.0 × 10^−8 s): greater than 1.0 × 10^10 M^1s^−1 | Stern–Volmer constant (bound stated in text) (PDIA1 [1]; PDIA1, both proteins always greater): greater than 1.0 × 10^4 M^−1 | Stern–Volmer constant KSV (PDIA1 [1]; PDIA1 not reduced form): 183.2 ± 2.7 M^−1 × 10^3 | Stern–Volmer constant KSV (PDIA1 [1]; PDIA1 reduced form): 97.9 ± 2.1 M^−1 × 10^3 | Kd (PDIA1 [1]; PDIA1 not reduced form): 4.9 µM | Kd (PDIA1 [1]; PDIA1 reduced form): 11.9 µM | Quenching constant Kq (PDIA3 [2]; PDIA3, KSV = Kqτ, τ in the order of 1.0 × 10^−8 s): greater than 1.0 × 10^10 M^1s^−1 | Stern–Volmer constant (bound stated in text) (PDIA3 [2]; PDIA3, both proteins always greater): greater than 1.0 × 10^4 M^−1 | Stern–Volmer constant KSV (PDIA3 [2]; PDIA3 not reduced form): 240.4 ± 3.6 M^−1 × 10^3 | Stern–Volmer constant KSV (PDIA3 [2]; PDIA3 reduced form): 157.1 ± 1.9 M^−1 × 10^3 | Kd (PDIA3 [2]; PDIA3 not reduced form): 3.9 µM | Kd (PDIA3 [2]; PDIA3 reduced form): 10 µM | Kd (PDIA1 [3]): 1 ± 0.2 µM | TΔS (PDIA1 [3]): 23.4 ± 2.1 kJ/mol | ΔH (PDIA1 [3]): -11.3 ± 1.7 kJ/mol | Kd (PDIA3 [4]): 1.2 ± 0.3 µM | TΔS (PDIA3 [4]): 28.5 ± 1.7 kJ/mol | ΔH (PDIA3 [4]): -4.6 ± 0.84 kJ/mol | Tm of first endothermic peak in presence of punicalagin (PDIA1 [5]; protein alone 46.0 °C): 42 °C | Tm of second endothermic peak in presence of punicalagin (PDIA1 [5]; protein alone 61.0 °C): 60 °C | Tm of first endothermic peak in presence of punicalagin (PDIA3 [6]; protein alone 44.9 °C): 40.4 °C | Tm of second endothermic peak in presence of punicalagin (PDIA3 [6]; protein alone 53.9 °C): 51.6 °C | IC50 (PDIA1 [7]): 6.1 ± 0.6 µM | IC50 (PDIA3 [8]): 1.5 ± 0.2 µM | Ki (PDIA3 [9]): 0.39 µM | solubility in water [10]: soluble in water
